In one assay the target is T1, AXL (Homo sapiens, UniProt P30530).
T1 construct: endogenous in cells; host or cells: A-172 glioblastoma cells (ATCC #CRL-1620)
T1 sequence (P30530 26-894): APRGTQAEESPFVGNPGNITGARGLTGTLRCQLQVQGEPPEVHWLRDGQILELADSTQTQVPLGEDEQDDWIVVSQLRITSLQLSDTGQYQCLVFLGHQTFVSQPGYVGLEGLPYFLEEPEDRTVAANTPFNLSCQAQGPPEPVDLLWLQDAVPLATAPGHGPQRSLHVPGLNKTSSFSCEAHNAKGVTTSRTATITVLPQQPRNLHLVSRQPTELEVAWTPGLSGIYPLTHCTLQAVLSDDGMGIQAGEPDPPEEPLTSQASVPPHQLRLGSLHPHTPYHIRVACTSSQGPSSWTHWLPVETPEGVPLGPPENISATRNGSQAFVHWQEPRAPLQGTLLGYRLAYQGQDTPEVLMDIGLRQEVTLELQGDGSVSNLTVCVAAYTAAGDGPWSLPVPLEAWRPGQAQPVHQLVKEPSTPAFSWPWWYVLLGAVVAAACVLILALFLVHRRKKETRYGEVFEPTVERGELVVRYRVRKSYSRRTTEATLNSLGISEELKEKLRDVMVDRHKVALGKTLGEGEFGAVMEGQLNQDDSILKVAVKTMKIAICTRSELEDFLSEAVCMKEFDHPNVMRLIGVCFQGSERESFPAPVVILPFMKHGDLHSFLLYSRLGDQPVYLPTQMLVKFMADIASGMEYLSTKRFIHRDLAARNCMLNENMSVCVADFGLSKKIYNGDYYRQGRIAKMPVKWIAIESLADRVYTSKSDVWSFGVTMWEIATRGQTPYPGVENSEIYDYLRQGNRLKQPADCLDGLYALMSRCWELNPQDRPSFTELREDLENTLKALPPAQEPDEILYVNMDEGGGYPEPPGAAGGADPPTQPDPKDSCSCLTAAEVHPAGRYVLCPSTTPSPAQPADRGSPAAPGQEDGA
The assay can be described thus: AXL autophosphorylation ELISA in A-172 cells. The conditions noted are these: Table 3 Cellular Activities, Gas6-stimulated, phospho-AXL ELISA. In kind it is cell-based. The procedure: A-172 glioblastoma cells (ATCC #CRL-1620) were seeded at 2.5×10^5 cells/well onto 24-well plates (Greiner #662165), in DMEM (Thermo Fisher #11995-040) containing 10% FBS (Thermo Fisher #26140-079), 1% MEM NEAA (Thermo Fisher #11140-050), 1% GlutaMax (Thermo Fisher #35050-061), and 1% Penicillin Streptomycin (Thermo Fisher #15140-122). A-172 cells were incubated at 37° C., 5% CO2 for 24 h and then starved for 24 h in serum-free medium. Test compounds were serially diluted to produce an 8-point dose curve in fresh serum-free medium to a final concentration of 0.3% DMSO (vehicle) and added to the cells and incubated for 1 h. Cells were then stimulated with 1 μg/mL recombinant human Gas6 (R&D Systems #885-GSB-500) for 15 min, washed with cold PBS, and immediately lysed with 150 μL of cold 1× lysis buffer [20 mM Tris, 137 mM sodium chloride, 2 mM EDTA, 10% glycerol, 1% NP-40 alternative, 1 mM activated sodium orthovanadate, 1 mM PefaBloc SC (Sigma-Aldrich #11429868001), protease/phosphatase inhibitor tablet (Thermo Fisher #A32959)]. Lysates were collected and 100 μL/well added into the human phospho-AXL DuoSet IC ELISA (R&D Systems #DYC2228-2). Assay was performed according to manufacturer's instructions and sample phospho-AXL concentrations were extrapolated using human phospho-AXL control (R&D Systems #841645) as a standard. Positive control wells (100% activity) contained Gas6-stimulated, DMSO-treated cell lysates. Negative control wells (0% activity) contained Gas6-stimulated, reference inhibitor-treated cell lysates. IC50 values were calculated by nonlinear regression analysis using a 4-parameter logistic curve fit in ActivityBase XE (IDBS).
A general note: ELISA stands for enzyme-linked immunosorbent assay.

The target of a further assay is Met (Homo sapiens, UniProt P08581). The assay can be described thus: Met autophosphorylation ELISA in PC-3 cells. In kind it is cell-based. Set-up: endogenous in cells; host or cells: PC-3 prostate cancer cells (ATCC #CRL-1435). To be noted: Table 3 Cellular Activities, HGF-stimulated, phospho-Met ELISA, read-out: c-Met IC50. The procedure, abridged: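 Serum-starved (3 h) PC-3 cells pre-incubated 1 h with compound (8-point dose curve, 0.3% DMSO), then stimulated with 100 ng/mL recombinant human HGF for 10 min. Lysate phospho-Met (panTyr) measured by sandwich ELISA; IC50 from 4-parameter logistic fit, normalised to DMSO (100%) and reference-inhibitor (0%) controls.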
Met, sequence (P08581 25-1390): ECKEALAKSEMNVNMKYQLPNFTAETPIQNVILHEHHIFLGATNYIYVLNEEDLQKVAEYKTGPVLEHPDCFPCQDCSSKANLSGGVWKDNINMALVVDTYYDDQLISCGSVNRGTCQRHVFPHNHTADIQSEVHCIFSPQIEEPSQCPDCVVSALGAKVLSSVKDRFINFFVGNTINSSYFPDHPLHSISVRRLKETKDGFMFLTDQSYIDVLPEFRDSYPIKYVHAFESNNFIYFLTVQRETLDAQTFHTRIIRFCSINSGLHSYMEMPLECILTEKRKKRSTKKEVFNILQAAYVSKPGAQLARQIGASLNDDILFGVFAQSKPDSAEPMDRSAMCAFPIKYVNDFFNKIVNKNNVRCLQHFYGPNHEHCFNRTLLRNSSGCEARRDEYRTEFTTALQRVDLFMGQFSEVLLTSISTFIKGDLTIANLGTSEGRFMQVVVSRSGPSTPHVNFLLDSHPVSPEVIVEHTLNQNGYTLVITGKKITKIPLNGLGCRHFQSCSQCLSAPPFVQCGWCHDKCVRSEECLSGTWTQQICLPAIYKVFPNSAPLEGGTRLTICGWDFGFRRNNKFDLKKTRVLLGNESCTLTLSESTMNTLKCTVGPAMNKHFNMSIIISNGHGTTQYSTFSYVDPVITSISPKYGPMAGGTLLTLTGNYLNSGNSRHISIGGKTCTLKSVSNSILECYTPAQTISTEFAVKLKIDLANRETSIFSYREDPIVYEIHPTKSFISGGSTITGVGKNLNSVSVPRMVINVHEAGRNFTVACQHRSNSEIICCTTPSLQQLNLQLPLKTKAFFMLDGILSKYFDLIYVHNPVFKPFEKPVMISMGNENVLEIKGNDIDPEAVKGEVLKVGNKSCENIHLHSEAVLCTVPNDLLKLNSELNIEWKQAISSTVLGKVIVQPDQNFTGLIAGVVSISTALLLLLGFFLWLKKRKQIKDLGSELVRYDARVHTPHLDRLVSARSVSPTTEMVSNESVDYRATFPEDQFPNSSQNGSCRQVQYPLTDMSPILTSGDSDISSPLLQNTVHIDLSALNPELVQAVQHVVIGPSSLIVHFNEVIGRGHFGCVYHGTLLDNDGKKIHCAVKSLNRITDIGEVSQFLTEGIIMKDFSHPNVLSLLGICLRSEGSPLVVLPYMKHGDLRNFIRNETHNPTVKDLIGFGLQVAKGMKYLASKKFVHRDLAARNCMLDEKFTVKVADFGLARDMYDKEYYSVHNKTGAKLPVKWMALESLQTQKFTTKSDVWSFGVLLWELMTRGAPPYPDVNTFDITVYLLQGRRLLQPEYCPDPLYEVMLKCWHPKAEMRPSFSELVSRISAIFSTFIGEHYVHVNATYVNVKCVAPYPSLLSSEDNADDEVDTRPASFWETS

On to `COc1cc2nccc(Oc3ccc(NC(=O)c4c(C)ccn(-c5ccc(F)cn5)c4=O)cc3F)c2nc1OC` [Compound 41, N-[4-[(6,7-Dimethoxy-1,5-naphthyridin-4-yl)oxy]-3-fluorophenyl]-1-(5-fluoropyridin-2-yl)-4-methyl-2-oxopyridine-3-carboxamide], for which the IC50 against AXL and at Met was at most 100 nM throughout.

On to `COc1cc2nccc(Oc3ccc(NC(=O)c4cccn(-c5ccc(F)cn5)c4=O)cc3F)c2nc1OC` [Compound 42, N-[4-[(6,7-Dimethoxy-1,5-naphthyridin-4-yl)oxy]-3-fluorophenyl]-1-(5-fluoropyridin-2-yl)-2-oxopyridine-3-carboxamide], for which the IC50 against AXL and at Met was at most 100 nM throughout.

For `COc1cc2nccc(Oc3ccc(NC(=O)c4ccc(C)n(-c5ccc(F)cn5)c4=O)cc3F)c2nc1OC` [Compound 43, N-[4-[(6,7-Dimethoxy-1,5-naphthyridin-4-yl)oxy]-3-fluorophenyl]-1-(5-fluoropyridin-2-yl)-6-methyl-2-oxopyridine-3-carboxamide], the IC50 against AXL and at Met was at most 100 nM throughout.

On to `COc1cc2nccc(Oc3ccc(NC(=O)c4ccc(C)n(-c5ccc(F)cn5)c4=O)cc3)c2nc1OC` [Compound 44, N-[4-[(6,7-Dimethoxy-1,5-naphthyridin-4-yl)oxy]phenyl]-1-(5-fluoropyridin-2-yl)-6-methyl-2-oxopyridine-3-carboxamide], for which the concentration for half-maximal inhibition (IC50) against AXL and at Met was at most 100 nM throughout.

Consider `COc1cnc2c(Oc3ccc(NC(=O)c4ccc(C)n(-c5ccc(F)cn5)c4=O)cc3F)ccnc2c1` [Compound 45, N-[3-Fluoro-4-[(7-methoxy-1,5-naphthyridin-4-yl)oxy]phenyl]-1-(5-fluoropyridin-2-yl)-6-methyl-2-oxopyridine-3-carboxamide], for which the half-inhibitory concentration (IC50) against AXL and on Met was at most 100 nM in each case.

For the compound `COc1ccc2nccc(Oc3ccc(NC(=O)c4ccc(C)n(-c5ccc(F)cn5)c4=O)cc3F)c2n1` [Compound 47, N-[3-Fluoro-4-[(6-methoxy-1,5-naphthyridin-4-yl)oxy]phenyl]-1-(5-fluoropyridin-2-yl)-6-methyl-2-oxopyridine-3-carboxamide], the concentration for half-maximal inhibition (IC50) against AXL and on Met was at most 100 nM throughout.

`Cc1ccc(C(=O)Nc2ccc(Oc3ccnc4cccnc34)c(F)c2)c(=O)n1-c1ccc(F)cn1` [Compound 48, N-[3-Fluoro-4-(1,5-naphthyridin-4-yloxy)phenyl]-1-(5-fluoropyridin-2-yl)-6-methyl-2-oxopyridine-3-carboxamide]: the IC50 against AXL and on Met was at most 100 nM each time.

Turning to `COc1ccc2nccc(Oc3ccc(NC(=O)c4ccc(C)n(-c5ccc(F)cn5)c4=O)cc3F)c2c1` [Compound 49, N-[3-Fluoro-4-(6-methoxyquinolin-4-yl)oxyphenyl]-1-(5-fluoropyridin-2-yl)-6-methyl-2-oxopyridine-3-carboxamide], the IC50 at AXL and at Met was at most 100 nM throughout.

With `COCCOc1cc2nccc(Oc3ccc(NC(=O)c4ccc(C)n(-c5ccc(F)cn5)c4=O)cc3F)c2nc1OC` [Compound 50, N-[3-Fluoro-4-[[6-methoxy-7-(2-methoxyethoxy)-1,5-naphthyridin-4-yl]oxy]phenyl]-1-(5-fluoropyridin-2-yl)-6-methyl-2-oxopyridine-3-carboxamide], the IC50 against AXL and at Met was at most 100 nM in each case.

For the compound `COc1cc2nccc(Oc3ccc(NC(=O)c4ccc(C)n(-c5ncc(F)cc5C)c4=O)cc3F)c2nc1OC` [Compound 51, N-[4-[(6,7-Dimethoxy-1,5-naphthyridin-4-yl)oxy]-3-fluorophenyl]-1-(5-fluoro-3-methylpyridin-2-yl)-6-methyl-2-oxopyridine-3-carboxamide], the IC50 at AXL and on Met was at most 100 nM each time.

For the compound `COc1cnc2c(Oc3ccc(NC(=O)c4ccc(C)n(-c5ncc(F)cc5C)c4=O)cc3F)ccnc2c1` [Compound 52, N-[3-Fluoro-4-[(7-methoxy-1,5-naphthyridin-4-yl)oxy]phenyl]-1-(5-fluoro-3-methylpyridin-2-yl)-6-methyl-2-oxopyridine-3-carboxamide], the IC50 against AXL and at Met was at most 100 nM each time.

`COc1ccc2nccc(Oc3ccc(NC(=O)c4ccc(C)n(-c5ncc(F)cc5C)c4=O)cc3F)c2n1` [Compound 53, N-[3-Fluoro-4-[(6-methoxy-1,5-naphthyridin-4-yl)oxy]phenyl]-1-(5-fluoro-3-methylpyridin-2-yl)-6-methyl-2-oxopyridine-3-carboxamide]: the IC50 against AXL and on Met was at most 100 nM each time.

In the case of `Cc1ccc(C(=O)Nc2ccc(Oc3ccnc4cnc(Cl)cc34)c(F)c2)c(=O)n1-c1ccc(F)cn1` [Compound 54A, N-[4-[(6-Chloro-1,7-naphthyridin-4-yl)oxy]-3-fluorophenyl]-1-(5-fluoropyridin-2-yl)-6-methyl-2-oxopyridine-3-carboxamide], the 50% inhibitory concentration (IC50) (commonly the concentration that gives 50% inhibition) against AXL is 100 to 300 nM; at Met, at most 100 nM.

As for `COc1cc2nccc(Oc3ccc(NC(=O)c4cc(C#N)c(C)n(-c5ccc(F)cn5)c4=O)cc3F)c2nc1OC` [Compound 56, 5-Cyano-N-[4-[(6,7-dimethoxy-1,5-naphthyridin-4-yl)oxy]-3-fluorophenyl]-1-(5-fluoropyridin-2-yl)-6-methyl-2-oxopyridine-3-carboxamide], the concentration for half-maximal inhibition (IC50) against AXL and on Met was at most 100 nM in each case.

In the case of `COc1cc2nccc(Oc3ccc(NC(=O)c4cc(C(C)=O)c(C)n(-c5ccc(F)cn5)c4=O)cc3F)c2nc1OC` [Compound 59, 5-Acetyl-N-[4-[(6,7-dimethoxy-1,5-naphthyridin-4-yl)oxy]-3-fluorophenyl]-1-(5-fluoropyridin-2-yl)-6-methyl-2-oxopyridine-3-carboxamide], the IC50 against AXL and on Met was at most 100 nM throughout.

As to `COc1cc2nccc(Oc3ccc(NC(=O)c4c(C)ncc(-c5ccc(F)cn5)c4O)cc3F)c2nc1OC` [Compound 68, N-[4-[(6,7-Dimethoxy-1,5-naphthyridin-4-yl)oxy]-3-fluorophenyl]-5-(5-fluoropyridin-2-yl)-4-hydroxy-2-methylpyridine-3-carboxamide], the IC50 against AXL and at Met was at most 100 nM in each case.

For `COc1cc2nccc(Oc3ccc(NC(=O)c4c(C)ncc(-c5ccccn5)c4O)cc3F)c2nc1OC` [Compound 69, N-[4-[(6,7-Dimethoxy-1,5-naphthyridin-4-yl)oxy]-3-fluorophenyl]-4-hydroxy-2-methyl-5-pyridin-2-ylpyridine-3-carboxamide], the IC50 on AXL and on Met was at most 100 nM throughout.

As for `COc1cnc2c(Oc3ccc(NC(=O)c4c(C)ncc(-c5ccccn5)c4O)cc3F)ccnc2c1` [Compound 70, N-[3-Fluoro-4-[(7-methoxy-1,5-naphthyridin-4-yl)oxy]phenyl]-4-hydroxy-2-methyl-5-pyridin-2-ylpyridine-3-carboxamide], the concentration for half-maximal inhibition (IC50) against AXL and on Met was at most 100 nM each time.

The values are drawn from patent publication US20230151003A1, “COMPOUNDS AND METHODS OF USE” (Exelixis, Inc., priority 2020, published 2023).
